Holding throughout (assay): GsX GloSensor assay with Gsα/q11
What all share (assay type): cell-based

For assay [1], the system named is human melanopsin L207^5.42A mutant. To be noted: 16.7 μM AA92593, COS-1 cells. As to the method:
(§1) Based on the docking and MD simulations of human melanopsin with AA92593, importance of the interactions of Trp-189^ECL2 and Leu-207^5.42 with the antagonist was experimentally examined using the GsX GloSensor assay. To validate the interaction between Trp-189^ECL2 and AA92593, substitutions of W189^ECL2F, W189^ECL2I, or W189^ECL2V in human melanopsin were tested. […] To assess the importance of Leu-207^5.42 in the interaction with AA92593, substitutions L207^5.42V, L207^5.42A, or L207^5.42F in human melanopsin were tested. […] Of note, the L207^5.42F substitution enhanced the sensitivity (∼8%) of human melanopsin to AA92593 (Fig. 5F), although the difference was not statistically significant (Fig. 5H). Dose-dependent curve of reduction in the GsX GloSensor signals of the L207^5.42F was shifted by ∼0.6 μM from the curve of WT (Fig. 5I). The introduction of a Phe residue at position 207^5.42 caused additional interactions between the phenyl ring in Phe-207^5.42 and some functional groups in AA92593. The marked changes in the antagonistic effects of Trp-189^ECL2 and Leu-207^5.42 substitutions are consistent with our molecular simulations, showing that these residues are located at the antagonist-binding site (Fig. 4B).
(§2) For GloSensor assay, opsins, GloSensor assay sensor (coded by pGlo-22F), and NanoBiT-tagged G proteins were transiently expressed in COS-1 cells (kindly provided from Dr David Farrens, Oregon Health and Science University) using PEI as described previously ([24], [52]). For the GsX GloSensor assay ([12], [13]), each well of a 96-well assay plate (Corning) was transfected with 50 ng opsin plasmid, 16.7 ng G protein plasmid, 50 ng pGlo-22F plasmid (Promega), and 500 ng PEI in 25 μl Opti-mem and 75 μl Dulbecco's modified Eagle's medium (D-MEM). For NanoBiT G protein dissociation assay, each well of a 96-well assay plate was transfected with 50 ng opsin plasmid, 5 ng Lg-BiT inserted Gqα (Gqα-LgBiT) plasmid, 25 ng Gβ1 plasmid, 25 ng Sm-BiT fused Gγ2 plasmid, 5 ng RIC8A plasmid, and 500 ng PEI in 25 μl Opti-mem and 75 μl D-MEM. For GFP-fluorescence microscopy, a 35-mm cell culture dish (IWAKI) was transfected with 2 μg melanopsin-GFP plasmid and 8 μg PEI in 400 μl Opti-mem and 1.2 ml D-MEM. For melanopsin purification, ten of 100-mm cell culture dishes (NEST) were transfected with 150 μg melanopsin plasmid and 500 μg PEI in 25 ml Opti mem and 75 ml D-MEM.
(§3) The transfected COS-1 cells were incubated at 37 °C, 5% CO2 for 2 days, and the medium was aspirated and exchanged with 50 μl of HBSS (145 mM NaCl, 10 mM D-glucose, 5 mM KCl, 1 mM MgCl2, 1.7 mM CaCl2, 1.5 mM NaHCO3, 10 mM Hepes, pH 7.4), containing 33.3, 20, 10, 2, 0.2, 0.02, 0.002, or 0 μM AA92593, 0.5% dimetyl sulfoxide (DMSO), and 4% (vol/vol) GloSensor cAMP reagent stock solution. Under our experimental conditions, >50 μM AA92593 was not fully dissolved in the HBSS solution, and we set maximal concentration of AA92593 (Glixx Laboratories) at 33.3 μM (final concentration of 16.7 μM, see below). Then, the cells were incubated at room temperature for 1 h, and luminescence changes were monitored. After incubation of the cells with AA92593, luminescence measurement was interrupted, the plate was ejected, and the cells were added with 50 μl of HBSS containing 0.2 μM 9-cis-retinal. The final exogenous AA92593 concentrations were 16.7, 10, 5, 1, 0.1, 0.01, 0.001, or 0 μM, and retinal concentration was 0.1 μM. Twenty millimolars of stock solution of AA92593 was prepared in DMSO, and final concentration of DMSO was kept at 0.25% regardless final AA92593 concentration. Then, the cells were incubated at room temperature for 1 h. Luminescence was measured using GM-2000 or GM-3510 microplate reader (Promega). Luminescence level of each well was measured every 30 s with integration time of 0.6 to 0.9 s. […]

Assay [2] addresses T1, human melanopsin W189^ECL2V mutant (Homo sapiens, UniProt Q9UHM6, W223V).
T1 construct: expressed in transfected cells; host or cells: COS-1
To be noted: 16.7 μM AA92593, COS-1 cells. As for the experimental part: as §1, §2, §3

The test system of assay [3] is human melanopsin W189^ECL2F mutant. To be noted: 16.7 μM AA92593, COS-1 cells. As to the method: as §1, §2, §3
Assay [4] concerns human melanopsin L207^5.42V mutant. To be noted: 16.7 μM AA92593, COS-1 cells. As for the experimental part:
as §1, §2, §3

In assay [5] the target is T2, human melanopsin L207^5.42F mutant (Homo sapiens, UniProt Q9UHM6, L239F).
T2 construct: the C-terminal amino acid residues (94, 140, 200, 214, 296, and 308 residues); expressed in transfected cells; host or cells: COS-1
T2 sequence (Q9UHM6 1-384 L239F limits assumed): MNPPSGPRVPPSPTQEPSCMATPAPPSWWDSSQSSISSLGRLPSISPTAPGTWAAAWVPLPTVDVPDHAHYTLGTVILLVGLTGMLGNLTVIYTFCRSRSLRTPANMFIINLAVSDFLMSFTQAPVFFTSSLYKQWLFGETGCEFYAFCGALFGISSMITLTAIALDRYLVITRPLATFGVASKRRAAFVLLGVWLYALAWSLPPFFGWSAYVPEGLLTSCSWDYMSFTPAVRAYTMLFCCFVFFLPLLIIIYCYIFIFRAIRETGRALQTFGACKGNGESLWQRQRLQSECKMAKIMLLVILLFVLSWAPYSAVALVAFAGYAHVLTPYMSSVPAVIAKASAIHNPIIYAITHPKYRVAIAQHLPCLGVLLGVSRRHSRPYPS
As to the method: as §1, §2, §3

The target of assay [6] is T3, human melanopsin W189^ECL2I mutant (Homo sapiens, UniProt Q9UHM6, W223I).
T3 construct: expressed in transfected cells; host or cells: COS-1
To be noted: 16.7 μM AA92593, COS-1 cells. As for the experimental part: as §1, §2, §3

[7] abbreviates: relative peak cAMP response vs no AA92593.

T1 sequence (Q9UHM6 1-384 W223V limits assumed): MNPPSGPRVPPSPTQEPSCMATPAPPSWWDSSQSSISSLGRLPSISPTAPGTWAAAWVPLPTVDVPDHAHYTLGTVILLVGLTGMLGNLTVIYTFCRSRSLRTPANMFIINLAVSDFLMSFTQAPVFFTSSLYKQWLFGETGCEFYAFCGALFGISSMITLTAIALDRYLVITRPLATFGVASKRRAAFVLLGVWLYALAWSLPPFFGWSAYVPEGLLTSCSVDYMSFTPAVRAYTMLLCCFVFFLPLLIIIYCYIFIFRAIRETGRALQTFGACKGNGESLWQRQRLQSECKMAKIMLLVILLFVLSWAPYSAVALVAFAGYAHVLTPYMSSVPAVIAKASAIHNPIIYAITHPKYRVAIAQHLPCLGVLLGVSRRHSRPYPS
T3 sequence (Q9UHM6 1-384 W223I limits assumed): as the sequence (Q9UHM6 1-384 W223V limits assumed) above, with V223I counted along it

Take `COc1ccc(S(=O)(=O)N2CCCCC2)cc1C` [AA92593]: the “reduced antagonistic effect of AA92593 vs WT” value in assay [1] is recorded as roughly 12%; in assay [4], roughly 15%. Besides, the “inhibitory effect of AA92593 compared to WT” value in assay [2] and in assay [6] was “significantly weaker” in each case. Moreover, in assay [3], the “decrease in sensitivity to AA92593 vs WT” value is listed as roughly 60%. The “Hill fitting parameter rate of dose-response curve” value in assay [5] is −0.88 ± 0.29. Moreover, the “enhanced sensitivity to AA92593 vs WT” value in assay [5] (16.7 μM AA92593, COS-1 cells, Gsα/q11, difference not statistically significant) is roughly 8%. Further, the IC50 in assay [5] (COS-1 cells, n = 3, read-out: IC50, reduction in peak cAMP responses upon Gsα/q11 activation) came out at 350 ± 160 nM. Also, the “Hill fitting parameter max of dose-response curve” value in assay [5] (setting [7]) came out at 98.88 ± 4.88. The “Hill fitting parameter min of dose-response curve” value in assay [5] (setting [7]) worked out at 3.15 ± 9.9.

Values taken from article PMC12051620, “Molecular basis underlying the specificity of an antagonist AA92593 for mammalian melanopsins” (The Journal of Biological Chemistry, 2025).
